Test results as given in patent publication US12617770B2, “IRAK inhibitor and preparation method therefor and use thereof” (WUHAN CREATERNA SCIENCE AND TECHNOLOGY CO., LTD., priority 2019, dated 2026).

Key:
CYP2D6 = biological target: T1, CYP2D6 (Homo sapiens, UniProt P10635); assay: CYP450 inhibition in human liver microsomes, CYP2D6; assay type: in vitro ADME; conditions: pooled (mixed) human liver microsomes, probe dextromethorphan; human liver microsomes, dextromethorphan; read-out: CYP2D6 IC50
T1 construct: co-incubated at 7 concentrations with human liver microsomes and five probe substrates; tissue Corning (USA); host or cells: mixed (pooled) human liver microsomes
T1 sequence (P10635 whole entry): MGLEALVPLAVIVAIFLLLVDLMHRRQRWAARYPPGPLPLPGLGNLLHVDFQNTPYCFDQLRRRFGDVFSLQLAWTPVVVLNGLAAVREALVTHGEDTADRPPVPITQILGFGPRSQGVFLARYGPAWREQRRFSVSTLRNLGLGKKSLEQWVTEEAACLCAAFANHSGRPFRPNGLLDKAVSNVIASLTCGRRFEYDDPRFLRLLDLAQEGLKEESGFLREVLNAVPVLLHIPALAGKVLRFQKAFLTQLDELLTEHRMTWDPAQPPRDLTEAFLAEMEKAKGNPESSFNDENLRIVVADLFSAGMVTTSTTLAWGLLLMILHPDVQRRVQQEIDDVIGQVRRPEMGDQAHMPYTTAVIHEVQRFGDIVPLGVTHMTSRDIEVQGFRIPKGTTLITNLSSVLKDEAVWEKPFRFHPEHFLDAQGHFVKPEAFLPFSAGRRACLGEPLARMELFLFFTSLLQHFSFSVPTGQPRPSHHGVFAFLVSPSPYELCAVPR
Experimental: This study was intended to investigate the inhibitory effect of the test compounds on 5 major enzymes in human P450 superfamily, CYP1A2, 2C9, 2C19, 2D6 and 3A4-M. The mixed human liver microsomes used in this assay were purchased from Corning (USA). The test compound (compound 14) was co-incubated at 7 concentrations with human liver microsomes and five probe substrates (phenacetin for CYP1a2, diclofenac for CYP2C9, mephenytoin for CYP2C19, dextromethorphan for CYP2D6, midazolam for CYP3A4-M, mixed). The reaction was initiated by adding coenzyme NADPH, and terminated by adding acetonitrile containing internal standard. After the proteins were precipitated, the supernatant was centrifuged. The characteristic metabolites in the supernatant (acetaminophen for CYP1A2, 4-hydroxydiclofenac for CYP2C9, 4-hydroxymephenytoin for CYP2C19, dextrorphan for CYP2D6, 1-hydroxymidazolam for CYP3A4-M) were analyzed by LC-MS/MS. The influence of the test compounds on production of the characteristic metabolites was finally analyzed on the basis of the data obtained. A selective inhibitor (ketoconazole for CYP3A4-M) may be used as positive control. All samples were tested in duplicate.

TNF-α release = assay: Inhibition of cytokine TNF-α release in LPS-induced Balb/c female mice; assay type: in vivo; conditions: oral gavage 16 h before LPS (i.p. 0.2 mg/kg); serum 1.5 h after stimulation
Experimental: Female Balb/c mice were randomized into groups, each containing 4 mice, including a control+vehicle group, a model+vehicle group, a model+reference group and model+compound groups. The control animals received an intraperitoneal injection of normal saline (10 mL/kg) and the model animals received LPS stimulation (Sigma CAT #L2630, i.p., 10 mL/kg, 0.2 mg/kg). To the test compounds, DMSO, Solutol and 10 mM PBS were sequentially added to prepare a solution or suspension of required concentration for administration. For the vehicle, DMSO, Solutol and 10 mM PBS were mixed in a volume ratio of 5:15:80. The animals were administered through oral gavage (10 mL/kg) 16 h before LPS (or saline) stimulation at predetermined doses, and euthanized with CO2 at 1.5 h after the stimulation for cardiac blood collection. The whole blood was not anticoagulated, incubated in wet ice for 1.5 h, and centrifuged at 2000×g at 4° C. for 10 min to separate the serum. Serum was frozen at −80° C. for TNF-α assay. Quantification of TNF-α was done by TNF-α ELISA kit according to the manufacturer's instructions. The readings of absorbance at A450 were measured with a microplate reader SpectraMax i3x (Molecular Device) for calculating the inhibition of the compounds, and IC50 was calculated with GraphPad Prism 7.0 software. […] In particular, some exemplary compound inhibition rate values are as follows: […]

[1] = Plasma protein binding (PPB), equilibrium dialysis, human plasma; assay type: in vitro ADME; conditions: 5 h at 37° C., read-out: Plasma protein binding (Bound %) Human (converted)
Experimental: The experiment is intended to determine plasma protein binding (PPB) data of the test compounds disclosed herein.
In the PPB experiment, the final administration matrix contained the test compound or a reference compound with a concentration of 1 μM and DMSO with a content of 0.2%.
Collecting samples in initial time: 25 μL of the matrix containing the compound was added into a blank 96-well collecting plate, and the plate was stored at −20° C.
An equilibrated dialysis device was prepared. 100 μL of buffer was added to the receiving side of the equilibrium dialysis plate. Then 100 μL of the administration matrix containing the compound or the reference compound was added into an administration side of the equilibrium dialysis plate. The prepared equilibrium dialysis plate was placed in a 37° C. shaker to be shaken for 5 h at 60 rpm.
Sample was prepared at the end of cultivation (5 h): Preparing sample in the receiving side: 25 μL of sample from a receiving side was taken out and placed in a 96-well sample collecting plate, and 25 μL of a corresponding matrix (blank plasma) was added for mixing: 200 μL of ACN containing an internal standard was added, shaken for 10 minutes at 600 rpm, and centrifuged at 5594 g for 15 min.
Preparing sample in the administration side: 25 μL of the sample containing test compound and reference compound from the administration side was taken out and 25 μL of a blank buffer was added for mixing; 200 μL of ACN containing an internal standard was added, shaken for 10 minutes at 600 rpm, and centrifuged at 5594 g for 15 min.
Preparing sample in initial time: the sample containing test compound and reference compound was re-melted at 37° C. in initial time and then mixed with the corresponding matrix (blank buffer) in the same volume (25 μL); 200 μL of ACN containing an internal standard was added, shaken for 10 minutes at 600 rpm, and centrifuged at 5594 g for 15 min.
After all the samples were centrifuged, 50 μL of a supernatant was taken and added into 50 μL of ultrapure water for mixing, and the samples were sent to liquid chromatography-mass spectrometry.

human IRAK1 = biological target: T2, human IRAK1 (Homo sapiens, UniProt P51617); assay: IRAK1 MSA (Mobility-Shift Assay) at Km concentration of ATP; assay type: biochemical; conditions: for IC50: read-out: IRAKI IC50; for IRAKI IC50 (nM)/ IRAK4 IC50 (nM): selectivity ratio IRAK1 to IRAK4
T2 construct: purchased Cama (so in the source)
T2 sequence (P51617 whole entry): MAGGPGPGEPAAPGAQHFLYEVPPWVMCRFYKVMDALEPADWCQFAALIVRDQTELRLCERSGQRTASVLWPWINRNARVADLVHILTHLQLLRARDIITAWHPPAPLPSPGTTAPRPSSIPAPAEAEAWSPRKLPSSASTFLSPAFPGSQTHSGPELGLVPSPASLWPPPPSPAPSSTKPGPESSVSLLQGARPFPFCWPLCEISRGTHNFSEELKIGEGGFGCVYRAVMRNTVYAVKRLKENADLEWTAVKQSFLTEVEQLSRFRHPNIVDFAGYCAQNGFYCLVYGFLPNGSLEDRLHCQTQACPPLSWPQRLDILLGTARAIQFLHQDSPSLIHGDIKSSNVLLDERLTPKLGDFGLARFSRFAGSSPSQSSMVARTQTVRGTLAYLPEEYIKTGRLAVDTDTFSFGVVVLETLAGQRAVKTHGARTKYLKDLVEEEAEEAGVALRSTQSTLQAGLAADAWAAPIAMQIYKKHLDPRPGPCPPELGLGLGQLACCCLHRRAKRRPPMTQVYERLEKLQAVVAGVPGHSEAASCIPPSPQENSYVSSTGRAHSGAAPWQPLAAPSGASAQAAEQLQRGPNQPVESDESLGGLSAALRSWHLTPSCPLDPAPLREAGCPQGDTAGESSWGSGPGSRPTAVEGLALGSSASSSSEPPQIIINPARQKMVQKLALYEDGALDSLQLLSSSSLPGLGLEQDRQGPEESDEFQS
Experimental: This assay evaluated the inhibitory effect of the compounds on human IRAK1 activity with the same materials as in Test Example 1.
A recombinant fusion protein of N-terminal GST (glutathione-S-transferase) and human IRAK1 was used as enzyme (GST-IRAK1, kinase IRAK1, Cama) at a final concentration of 3 nM: ATP (Sigma) was at a final concentration of 97 μM; the substrates used for the kinase reaction were 5-FAM (5-carboxyfluorescein)-labeled polypeptide (5-FAM-[…]-COOH) and substrate peptide FAM-P8 (GL Biochem) at final concentrations of 5 μM.
In this assay, 500 μM stock solutions of the compounds were prepared in 100% DMSO, and serially 4-fold diluted to the 10th concentration gradient with 100% DMSO, followed by a 10-fold dilution in the compound buffer (50 mM HEPES, pH 7.5, 0.00015% Brij-35) to give intermediate dilutions of the compounds at a final concentration of 10 μM−0.04 nM containing 10% DMSO. 5 μL of the intermediate dilution was transferred into a black 384-well plate.
IRAK1 was diluted to 7.5 nM in the kinase buffer (50 mM HEPES, pH 7.5, 0.00015% Brij-35, 2 mM DTT). 10 μL of the IRAK1 dilution was transferred to the 384-well plate and co-incubated with the compound for 10-15 min.
The substrate and ATP were diluted to 12.5 μM and 242.5 μM with reaction buffer (50 mM HEPES, pH 7.5, 0.00015% Brij-35, 10 mM MgCl2), respectively. 10 μL of the dilution was transferred to a 384-well plate and incubated at 28° C. for 1 h. The reaction was terminated by adding 25 μL of 50 mM EDTA to the 384-well plate.
The inhibition of IRAK1 by the compounds was calculated by measuring the rate of phosphorylated substrate using a Caliper EZ Reader (PerkinElmer) and the IC50 was calculated by XL-fit software.

Row | Compound | IC50 (CYP2D6) [µM] | Inhibition rate (%) of TNF-α (TNF-α release) [%] | fraction unbound at 5 h, 1 μM [1] | IC50 (human IRAK1) [µM] | IRAKI IC50 (nM)/ IRAK4 IC50 (nM) (human IRAK1)
1 | COc1cc2nn(CCC(C)(C)O)cc2cc1NC(=O)c1cccc(C)[n+]1[O-] [Compound 163, 2-((2-(3-hydroxy-3-methylbutyl)-6-methoxy-2H-indazol-5-yl)carbamoyl)-6-methylpyridine 1-oxide] | > 30 | 71.56 | 0.183 | 2.99 | 130.1
2 | COc1cc2nn([C@H]3CC[C@](C)(O)CC3)cc2cc1NC(=O)c1cccc(C)[n+]1[O-] [Compound 001, 2-((2-((1r,4r)-4-hydroxy-4-methylcyclohexyl)-6-methoxy-2H-indazol-5-yl)carbamoyl)-6-methylpyridine 1-oxide] | > 30 | 74.00 | 0.19 | 4.04 | 673.2
